In patent publication US20100227856A1, “NOVEL COMPOUNDS” (SMITHKLINE BEECHAM CORPORATION, priority 2006, published 2010) one finds EC50 data, which are given here for 2 molecules.

The target of this experiment is T1, TRPV4 channel receptors (Bos taurus, UniProt A0A8F4X677).
T1 construct: obtained using this method in bovine articular chondrocytes; endogenous in cells; host or cells: bovine articular chondrocytes
In words: Ca2+ influx in bovine articular chondrocytes (Fura-2 fluorescence, FlexStation). The class given is cell-based. An excerpt: Ca^2+ influx mediated through TRPV4 channel receptors can be measured using articular chondrocytes from such species as, but not limited to, human, rat, canine, rabbit, monkey, and bovine, using standard techniques in the art such as, but not limited to, Fura-2 (Invitrogen/Molecular Probes, Eugene, Oreg.) fluorescence using a FlexStation (manufactured by Molecular Devices, Sunnyvale, Calif.). Table 1 lists biological data for several representative compounds obtained using this method in bovine articular chondrocytes.

In general, EC50 refers to the concentration that produces a half-maximal response.

T1 sequence (A0A8F4X677 1-871): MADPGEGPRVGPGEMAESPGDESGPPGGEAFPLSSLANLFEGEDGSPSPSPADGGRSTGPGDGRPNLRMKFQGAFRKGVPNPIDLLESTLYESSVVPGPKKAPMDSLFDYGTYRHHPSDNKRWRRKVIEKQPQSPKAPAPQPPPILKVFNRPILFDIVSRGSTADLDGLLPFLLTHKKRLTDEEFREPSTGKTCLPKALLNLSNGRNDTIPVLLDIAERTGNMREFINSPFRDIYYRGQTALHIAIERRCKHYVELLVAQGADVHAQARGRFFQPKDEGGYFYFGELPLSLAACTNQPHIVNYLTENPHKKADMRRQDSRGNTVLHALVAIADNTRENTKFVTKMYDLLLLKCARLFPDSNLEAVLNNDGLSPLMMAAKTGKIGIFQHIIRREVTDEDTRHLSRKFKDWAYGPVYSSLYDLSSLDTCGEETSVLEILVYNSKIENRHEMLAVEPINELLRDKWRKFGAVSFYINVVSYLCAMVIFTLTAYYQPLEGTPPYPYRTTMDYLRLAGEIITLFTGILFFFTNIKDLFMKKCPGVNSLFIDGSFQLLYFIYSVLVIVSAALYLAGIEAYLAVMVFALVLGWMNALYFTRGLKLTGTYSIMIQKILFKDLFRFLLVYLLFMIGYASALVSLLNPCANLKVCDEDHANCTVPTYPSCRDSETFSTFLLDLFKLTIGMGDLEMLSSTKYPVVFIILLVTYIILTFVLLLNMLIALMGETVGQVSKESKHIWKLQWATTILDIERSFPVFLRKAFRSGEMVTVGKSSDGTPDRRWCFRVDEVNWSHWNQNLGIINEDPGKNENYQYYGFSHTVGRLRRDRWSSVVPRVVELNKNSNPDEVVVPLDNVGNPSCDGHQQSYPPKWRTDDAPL

In turn, `CC(C)C[C@H](NC(=O)c1cc2ccccc2s1)C(=O)NCC1CCCCN1S(=O)(=O)c1ccccc1C#N` (stereo partly drawn) [Example 1, N-((1S)-1-{[({1-[(2-cyanophenyl)sulfonyl]-2-piperidinyl}methyl)amino]carbonyl}-3-methylbutyl)-1-benzothiophene-2-carboxamide] returned an EC50 of 110 to 2000 nM.
The figure for `CC(C)C[C@H](NC(=O)c1cc2ccccc2s1)C(=O)NCCC1CCCCN1S(=O)(=O)c1ccc(Cl)cc1Cl` (stereo partly drawn) [Example 3, N-((1S)-1-{[(2-{1-[(2,4-Dichlorophenyl)sulfonyl]-2-piperidinyl}ethyl)amino]carbonyl}-3-methylbutyl)-1-benzothiophene-2-carboxamide] is 10 to 100 nM.
